{
  "source": "PubChem BioAssay AID2060603",
  "about": "(Molecular Pharmacology Branch, DTP, NCI, 2025);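 also: spheroids exposed to agents for seven days before readout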",
  "system": "422866-222-R5-J1-PDC spheroid viability",
  "assay": "Anticancer human tumor 422866-222-R5-J1-PDC patient-derived pancreatic adenocarcinoma cell line growth inhibition [CLK]",
  "conditions": "spheroids with HUVEC and MSC; for IC50: curve of first compound; for viability, T/C: stronger effect = lower value",
  "source_text": "A high-throughput screen of multi-cell type tumor spheroids was designed to identify active combinations of […] and targeted small molecules. Complex spheroids include a stromal component modeled by human endothelial cells (HUVEC) and fibroblasts modeled by human mesenchymal stem cells (MSCs). The concentration ranges selected for each drug and investigational agent were based upon clinically achievable concentrations if the clinical Cmax of the agent was known.\nCompounds. The drugs and investigational agents: cirtuvivint (SM08502; NSC835563), CC-671 (NSC850746), vemurafenib (NSC761431), tapotoclax (NSC804041), sotorasib (NSC818433), adagrasib (NSC831453), MRTX-1133 (NSC836407), BAY2416964 (NSC825713), copanlisib (NSC816437), inavolisib (NSC800729), abemaciclib (NSC768073), osimertinib (NSC779217), entinostat (NSC756642), eltanexor (KPT-8602, NSC794443), venetoclax (NSC766270), ceralasertib (NSC777638), bortezomib (NSC756655), olaparib (NSC753686), talazoparib (NSC767125), alisertib (NSC759677), peposertib (NSC802822), gemcitabine (NSC613327), 5-fluorouracil (NSC19893), SN-38 (NSC673596), oxaliplatin (NSC266046), paclitaxel (NSC125973), and doxorubicin (NSC123127), were obtained from the National Cancer Institute (NCI) Developmental Therapeutics Program Chemical Repository. The FDA-approved anticancer drug set is available from the Developmental Therapeutics Program at https://dtp.cancer.gov/organization/dscb/obtaining/available plates.htm. […] The stock solutions were prepared in dimethyl sulfoxide (DMSO, Sigma-Aldrich, St. Louis, MO, cat. D2650), except for the platinum complexes which were prepared in saline (Quality Biological, Gaithersburg, MD, cat. 114-055-101), at 800-fold the tested concentration and stored at -70 degrees C prior to their use. All drugs and investigational agents were tested over a range starting from a high concentration at or near the clinical Cmax and decreasing in half-log increments. If the clinical Cmax for an agent had not been determined, the highest concentration tested was 10 microM.\nCell Culture. All cells were maintained in an incubator at 37 degrees C and 5% CO2 with 95% humidity. The PDC lines were cultured according to standard operating procedures established by the NCI PDMR. Briefly, all PDCs were thawed and cultured in Matrigel-coated flasks prepared with a working solution of 1X Ham's F-12 nutrient mix, without supplementation (Invitrogen, Waltham, MA, cat. 11765054), 100 U/mL penicillin-streptomycin (Invitrogen, cat. 15140122), and 2.5% Matrigel (Corning Inc., Corning, NY, cat. 354248) for the first three passages. The 947758-054-R-J2-PDC line was cultured in 6B/Colon 1A media, which includes advanced DMEM/F-12 (Thermo Fisher Scientific, cat. 12634028), 10 mM HEPES (Thermo Fisher Scientific, cat. 15630080), 1X GlutaMAX supplement (Thermo Fisher Scientific, cat. 35050061), 0.1 mg/mL primocin (InvivoGen, cat. ant-pm-2), 10% defined fetal bovine serum, heat inactivated (HyClone Laboratories Inc., cat. SH30070.03HI), 1.25 mM N-Acetyl-L-cysteine (Sigma-Aldrich, cat. A9165), 10 mM nicotinamide (Sigma-Aldrich, cat. N0636), 1X B-27 supplement (Thermo Fisher Scientific, cat. 17504044), 1X N-2 supplement (Thermo Fisher Scientific, cat. 17502048), and 10 microM Y-27632 dihydrochloride (Tocris Bioscience, cat. 1254). The 876862-298-R-J1-PDC was cultured in 6E media, which includes all 6B/Colon 1A media components plus 50% L-WRN conditioned media (ATCC, cat. CRL-3276), 50 ng/mL recombinant human EGF recombinant protein (hEGF; Thermo Fisher Scientific, cat. PHG0311), 10 ng/mL recombinant human fibroblast growth factor 10 (hGFG-10; PeproTech, cat. 100-26), 1 ng/mL recombinant human fibroblast growth factor 2 (hFGF-2; PeproTech, cat. 100-18B), and 1 µM prostaglandin E2 (PGE2; Tocris, cat. 2296). The 227483-062-R1-J1-PDC line was cultured in Panc media, containing all 6E components except hFGF-2, with the addition of 500 nM SB-431542 (Selleckchem, cat. S1067) and 10 nM gastrin (Tocris, cat. 3006). […]",
  "data": [
    {"smiles": "O=C(c1cc(Cc2n[nH]c(=O)c3ccccc23)ccc1F)N1CCN(C(=O)C2CC2)CC1", "note": "+ CN1CCN(c2cc(C(=O)Nc3cc4cc(-c5cnn(C)c5)ccc4cn3)ccn2)CC1", "values": [
      {"measurement": "IC50", "setting": "second compound 0.0316 µM", "result": "> 10", "unit": "µM"},
      {"measurement": "IC50", "setting": "second compound 0.1 µM", "result": "> 10", "unit": "µM"},
      {"measurement": "IC50", "setting": "second compound 0.316 µM", "result": "> 10", "unit": "µM"},
      {"measurement": "IC50", "setting": "second compound 1 µM", "result": "< 0.0316", "unit": "µM"},
      {"measurement": "IC50", "setting": "second compound 3.16 µM", "result": "< 0.0316", "unit": "µM"},
      {"measurement": "IC50", "setting": "second compound 10 µM", "result": "< 0.0316", "unit": "µM"},
      {"measurement": "viability, T/C", "setting": "second compound 0.0316 µM, first compound 0.0316 µM", "result": 120, "unit": "%"},
      {"measurement": "viability, T/C", "setting": "second compound 0.0316 µM, first compound 0.1 µM", "result": 112, "unit": "%"},
      {"measurement": "viability, T/C", "setting": "second compound 0.0316 µM, first compound 0.316 µM", "result": 112, "unit": "%"},
      {"measurement": "viability, T/C", "setting": "second compound 0.0316 µM, first compound 1 µM", "result": 125, "unit": "%"},
      {"measurement": "viability, T/C", "setting": "second compound 0.0316 µM, first compound 3.16 µM", "result": 102, "unit": "%"},
      {"measurement": "viability, T/C", "setting": "second compound 0.0316 µM, first compound 10 µM", "result": 84.1, "unit": "%"},
      {"measurement": "viability, T/C", "setting": "second compound 0.1 µM, first compound 0.0316 µM", "result": 122, "unit": "%"},
      {"measurement": "viability, T/C", "setting": "second compound 0.1 µM, first compound 0.1 µM", "result": 105, "unit": "%"},
      {"measurement": "viability, T/C", "setting": "second compound 0.1 µM, first compound 0.316 µM", "result": 109, "unit": "%"},
      {"measurement": "viability, T/C", "setting": "second compound 0.1 µM, first compound 1 µM", "result": 98.7, "unit": "%"},
      {"measurement": "viability, T/C", "setting": "second compound 0.1 µM, first compound 3.16 µM", "result": 95, "unit": "%"},
      {"measurement": "viability, T/C", "setting": "second compound 0.1 µM, first compound 10 µM", "result": 88.4, "unit": "%"},
      {"measurement": "viability, T/C", "setting": "second compound 0.316 µM, first compound 0.0316 µM", "result": 96.8, "unit": "%"},
      {"measurement": "viability, T/C", "setting": "second compound 0.316 µM, first compound 0.1 µM", "result": 82.2, "unit": "%"},
      {"measurement": "viability, T/C", "setting": "second compound 0.316 µM, first compound 0.316 µM", "result": 87.2, "unit": "%"},
      {"measurement": "viability, T/C", "setting": "second compound 0.316 µM, first compound 1 µM", "result": 85.5, "unit": "%"},
      {"measurement": "viability, T/C", "setting": "second compound 0.316 µM, first compound 3.16 µM", "result": 83.7, "unit": "%"},
      {"measurement": "viability, T/C", "setting": "second compound 0.316 µM, first compound 10 µM", "result": 74.8, "unit": "%"},
      {"measurement": "viability, T/C", "setting": "second compound 1 µM, first compound 0.0316 µM", "result": 26.2, "unit": "%"},
      {"measurement": "viability, T/C", "setting": "second compound 1 µM, first compound 0.1 µM", "result": 24.4, "unit": "%"},
      {"measurement": "viability, T/C", "setting": "second compound 1 µM, first compound 0.316 µM", "result": 23.4, "unit": "%"},
      {"measurement": "viability, T/C", "setting": "second compound 1 µM, first compound 1 µM", "result": 22.4, "unit": "%"},
      {"measurement": "viability, T/C", "setting": "second compound 1 µM, first compound 3.16 µM", "result": 28.3, "unit": "%"},
      {"measurement": "viability, T/C", "setting": "second compound 1 µM, first compound 10 µM", "result": 25.2, "unit": "%"},
      {"measurement": "viability, T/C", "setting": "second compound 3.16 µM, first compound 0.0316 µM", "result": 10.1, "unit": "%"},
      {"measurement": "viability, T/C", "setting": "second compound 3.16 µM, first compound 0.1 µM", "result": 11.2, "unit": "%"},
      {"measurement": "viability, T/C", "setting": "second compound 3.16 µM, first compound 0.316 µM", "result": 9.98, "unit": "%"},
      {"measurement": "viability, T/C", "setting": "second compound 3.16 µM, first compound 1 µM", "result": 8.62, "unit": "%"},
      {"measurement": "viability, T/C", "setting": "second compound 3.16 µM, first compound 3.16 µM", "result": 9.42, "unit": "%"},
      {"measurement": "viability, T/C", "setting": "second compound 3.16 µM, first compound 10 µM", "result": 12.3, "unit": "%"},
      {"measurement": "viability, T/C", "setting": "second compound 10 µM, first compound 0.0316 µM", "result": 1.86, "unit": "%"},
      {"measurement": "viability, T/C", "setting": "second compound 10 µM, first compound 0.1 µM", "result": 1.82, "unit": "%"},
      {"measurement": "viability, T/C", "setting": "second compound 10 µM, first compound 0.316 µM", "result": 2.14, "unit": "%"},
      {"measurement": "viability, T/C", "setting": "second compound 10 µM, first compound 1 µM", "result": 2.42, "unit": "%"},
      {"measurement": "viability, T/C", "setting": "second compound 10 µM, first compound 3.16 µM", "result": 3.13, "unit": "%"},
      {"measurement": "viability, T/C", "setting": "second compound 10 µM, first compound 10 µM", "result": 2.42, "unit": "%"}
    ]}
  ]
}
